# Earlier results, collected in patent publication US9795630B2, “Compositions and methods for inducing or enhancing connective tissue repair” (Glenpharma AB, priority 2009, dated 2017).
# Test system: superficial digital flexor tendon injuries
# Settings: horses; Dyson 1977/1997 & 2004
compound,measurement,value
"N#CCCN.N#CCCN.O=C(O)/C=C/C(=O)O [BAPN, B-aminoproprionitrile fumarate]","benefit of intralesional treatment (healing, recovery time, tendon repair) compared with controlled exercise alone",failed to show any benefit
